# From patent US20180251425A1, “2,3,5 TRISUBSTITUTED PYRROLE DERIVATIVES AS TOPOISOMERASE INHIBITORS AND THERAPEUTIC USES THEREOF” (UNIVERSITY OF MYSORE, priority 2015, published 2018)
# Columns and labels:
# Nalm6 = experiment: Cytotoxicity (MTT / trypan blue) in Nalm6 cells; type: cell-based; settings: Homo sapiens, NALM-6, read-out: Cytotoxicity IC 50 in μM (Cell lines) Nalm6
# Experimental: (§1) Human cancer cell lines, K562, MCF7, HeLa and HEK 293T were purchased from National Centre for Cell Science, Pune, India. Cells were grown in RPMI 1640/MEM/DMEM supplemented with 10% heat-inactivated fetal bovine serum (FBS), 100 U/mL of Penicillin, and 100 μg of streptomycin/mL and incubated at 37° C. in a humidified atmosphere containing 5% CO2.
# (§2) Nalm6, Molt4 and Reh cells were provided by Dr. Sathees C. Raghavan, Department of Biochemistry, IISc, Bangalore. The cells were grown under the similar culture conditions as mentioned above.
# (§3) The human T cell leukemia cell line Molt4, Human acute lymphoblastic leukemia (ALL) cell line Nalm6, Human acute myelocytic leukemia (AML) cell line Reh, chronic myelogenous leukemia (CML) cell line K562, Human breast adenocarcinoma cell lines like MCF7 and human kidney cell line HEK 293T (Human embryonic kidney cell line) were selected for the purpose of preliminary anticancer screening of newly synthesized compounds (ASR1 to ASR15). To check the cytotoxicity, trypan blue dye exclusion assays, MTT assay were employed as described earlier Further, Cell cycle analysis, Mitochondrial membrane potential, Annexin-V FITC staining assay were also performed in order to understand the mode of cell death after treatment with ASR6. Further, ASR6 was also tested for its ability to inhibit topoisomerase I and II activity in vitro.
# (§4) Cytotoxic effect of the newly synthesized compounds against leukemic cells was assessed using 3-(4, 5-dimethyl-2-yl02, 5-diphenyl tetrazolium bromide (MTT) assay. After exposure of compound at different concentration (0.01, 0.1, 0.5, 1, 10, 50 and 100 μM) cells were harvested and transferred into 96 well plate, MTT (5 mg/ml) was added and incubate at 37° C. for 4 h and formazan crystals were dissolved by adding solubilizing agent (10% SDS and 50% dimethyl formamide) for 1 h, finally plate was read at 570 nm (Bio-Rad, USA). Results were represented as inhibition of percentage of cell proliferation in bar diagram (n=3) (FIGS. 1 A, C, E and G).
# (§5) To determine the growth inhibitory activity of the drug, 0.5×10^5 cell/ml were plated in 24 well (Biofil, USA.) in 1 ml of complete medium and treated with various concentration of the compound to test, cells were stained with 0.4% trypan blue and counted on a hemocytometer after treatment with compounds at 48 and 72 h time point. Results were represented as number of viable cells/ml in bar diagram (FIGS. 1 B, D, F, and H) (n=3).
# [1] = biological target: T1, recombinant human DNA topoisomerase IIα (Homo sapiens, UniProt P11388); experiment: Topoisomerase IIα DNA relaxation assay; type: biochemical; settings: 0, 10, 25, 50 and 100 μM, supercoiled pBS-SK+ plasmid, 37° C. 30 min, dose dependent
# T1 construct: purchased TopoGEN; Inc
# T1 sequence (P11388 whole entry): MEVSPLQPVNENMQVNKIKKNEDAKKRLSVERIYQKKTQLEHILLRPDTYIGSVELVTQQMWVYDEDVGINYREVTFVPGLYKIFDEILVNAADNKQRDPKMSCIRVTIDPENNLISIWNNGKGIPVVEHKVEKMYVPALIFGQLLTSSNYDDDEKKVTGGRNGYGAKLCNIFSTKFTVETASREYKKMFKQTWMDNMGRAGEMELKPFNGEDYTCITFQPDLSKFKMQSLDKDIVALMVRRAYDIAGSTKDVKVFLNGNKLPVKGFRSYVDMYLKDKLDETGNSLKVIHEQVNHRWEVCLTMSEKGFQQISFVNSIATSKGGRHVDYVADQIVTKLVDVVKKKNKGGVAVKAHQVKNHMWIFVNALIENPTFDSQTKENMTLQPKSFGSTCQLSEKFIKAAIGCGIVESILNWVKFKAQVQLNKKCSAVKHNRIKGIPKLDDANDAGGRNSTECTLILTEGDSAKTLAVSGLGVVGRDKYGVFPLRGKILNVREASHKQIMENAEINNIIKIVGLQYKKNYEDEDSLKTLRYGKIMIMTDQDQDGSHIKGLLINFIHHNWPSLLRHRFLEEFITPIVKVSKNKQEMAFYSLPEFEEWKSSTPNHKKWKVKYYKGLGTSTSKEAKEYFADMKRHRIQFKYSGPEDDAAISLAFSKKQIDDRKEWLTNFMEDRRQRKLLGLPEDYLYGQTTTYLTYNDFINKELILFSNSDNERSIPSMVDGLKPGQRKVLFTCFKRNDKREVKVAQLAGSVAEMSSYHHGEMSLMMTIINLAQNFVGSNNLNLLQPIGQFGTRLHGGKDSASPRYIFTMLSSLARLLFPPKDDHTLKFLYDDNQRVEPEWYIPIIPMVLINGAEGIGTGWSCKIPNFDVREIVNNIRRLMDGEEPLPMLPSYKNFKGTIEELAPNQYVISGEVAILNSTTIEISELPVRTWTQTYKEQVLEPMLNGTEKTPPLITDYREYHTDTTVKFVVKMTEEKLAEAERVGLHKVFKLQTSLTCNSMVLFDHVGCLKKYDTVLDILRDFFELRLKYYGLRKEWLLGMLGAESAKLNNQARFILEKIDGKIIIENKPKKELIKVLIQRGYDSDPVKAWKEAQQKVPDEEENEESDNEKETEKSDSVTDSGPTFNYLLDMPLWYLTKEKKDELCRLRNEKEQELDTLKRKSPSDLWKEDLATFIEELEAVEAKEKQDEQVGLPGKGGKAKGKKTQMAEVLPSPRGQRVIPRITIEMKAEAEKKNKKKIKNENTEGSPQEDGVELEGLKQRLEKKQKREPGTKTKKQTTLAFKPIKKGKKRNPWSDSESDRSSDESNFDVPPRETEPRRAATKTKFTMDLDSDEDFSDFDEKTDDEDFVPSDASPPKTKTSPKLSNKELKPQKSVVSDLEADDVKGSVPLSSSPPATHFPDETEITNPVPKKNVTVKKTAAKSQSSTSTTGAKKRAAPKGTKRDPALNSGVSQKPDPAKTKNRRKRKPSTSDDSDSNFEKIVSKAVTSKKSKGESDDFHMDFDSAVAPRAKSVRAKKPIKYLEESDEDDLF
# Experimental: The topoisomerase IIα assay was performed, in a reaction mixture containing supercoiled plasmid DNA (pBS-SK+) was isolated using Gen Elute plasmid miniprep kit (Sigma Aldrich), according to manual instructions. ˜200 ng plasmid and two units of recombinant human DNA topoisomerase IIα (TopoGEN. Inc) along with the different concentrations of ASR6 (0, 10, 25, 50 and 100 μM) was added at RT for 5 min; equal amount of DMSO was used as vehicle control. Reaction was carried out at 37° C. for 30 min in a relaxation buffer 1× topo II buffer (50 mM Tris-HCl (pH 8.0), 10 mM NaCl, 10 mM MgCl2, 5 mM ATP, 0.5 mM dithiothreitol and 30 μg BSA/ml) and reactions were terminated by adding 5× stop buffer containing 5% sarkosyl, 0.0025% bromophenol blue, 25% glycerol. The DNA samples were electrophoresed on 1% agarose gel at 45 volts for 4 h with 0.5×TBE (Tris-borate-EDTA). The gels were stained for 30 min in milli Q water containing ethidium bromide (0.5 mg/ml) followed by distaining for 30 min in milli Q water and images were taken. […] VP16 (Topo II inhibitor) were used as positive control (FIG. 6).
# HeLa = experiment: Cytotoxicity in HeLa cells; type: cell-based; settings: Homo sapiens, read-out: Cytotoxicity IC 50 in μM (Cell lines) HeLa
# Experimental: as §1
# as §4, with “G). […]” for “G).”
# Molt4 cells = experiment: Cell cycle analysis (propidium iodide, flow cytometry); type: cell-based, Human; settings: Molt4 cells, 0.01, 0.1, 0.25 and 0.5 μM, concentration dependent
# Experimental: The DNA content analysis was performed by using Flow cytometer, Molt4 cells seeded (0.5×10^5 cells/ml) in 6 well plate and treated with different concentrations of ASR6 (0.01, 0.1, 0.25 and 0.5 μM) at 37° C. for 48 h. After incubation cells were harvested, processed and fixed in 80% chilled ethanol. Overnight treated with RNase-A (50 μg/ml) incubated at 37° C. Further cells stained with propidium iodide (5 μg/ml) and cell cycle progression was monitored using flow cytometer (FACSVerse™ BD Biosciences, USA). A minimum of 10000 cells were recorded. Results were analyzed using Flowing Software (Version 2.5) and plotted histograms.
# In FIG. 2 A, B histograms representing different phases of cell cycle distribution of ASR6 (0.01, 0.1, 0.25 and 0.5 μM for 24 h and 48 h) treated Molt4 cells is shown.
# Reh = experiment: Cytotoxicity (MTT / trypan blue) in Reh cells; type: cell-based; settings: Homo sapiens, read-out: Cytotoxicity IC 50 in μM (Cell lines) Reh
# Experimental: as §1, §2, §3, §4, §5
# K562 = experiment: Cytotoxicity (MTT / trypan blue) in K562 cells; type: cell-based; settings: Homo sapiens, read-out: Cytotoxicity IC 50 in μM (Cell lines) K562
# Experimental: as §1, §3, §4, §5
# [2] = Cytotoxicity in HEK293T cells; type: cell-based; settings: human, HEK293T cells (human embryonic kidney); read-out: Cytotoxicity IC 50 in μM (Cell lines) HEK293T
# Experimental: as §1
# The human T cell leukemia cell line Molt4, Human acute lymphoblastic leukemia (ALL) cell line Nalm6, Human acute myelocytic leukemia (AML) cell line Reh, chronic myelogenous leukemia (CML) cell line K562, Human breast adenocarcinoma cell lines like MCF7 and human kidney cell line HEK 293T (Human embryonic kidney cell line) were selected for the purpose of preliminary anticancer screening of newly synthesized compounds (ASR1 to ASR15). […]
# as §5, with “Results were represented as number of viable cells/ml in bar diagram (FIGS. 1 B, D, F, and H) (n=3).” left out
# MCF7 = experiment: Cytotoxicity in MCF7 cells; type: cell-based; settings: Homo sapiens, read-out: Cytotoxicity IC 50 in μM (Cell lines) MCF7
# Experimental: as §1, §3, §4, §5
smiles,measurement,setting,value
"CCOC(=O)c1[nH]c(-c2ccc(Cl)cc2)cc1-c1cccnc1 [ASR6, Ethyl 5-(4-chlorophenyl)-3-(pyridin-3-yl)-1H-pyrrole-2-carboxylate]",IC50,Nalm6,0.344 µM
same,Inhibition of topoisomerase IIα activity (DNA relaxation),[1],can inhibit topoisomerase Ha enzymatic activity
same,IC50,HeLa,0.749 µM
same,Cell cycle progression at 24 h,Molt4 cells; 24 h,G2/M arrest
same,Cell cycle progression at 48 h,Molt4 cells; 48 h,SubG1 phase (apoptosis)
same,IC50,Reh,0.36 µM
same,IC50,K562,0.512 µM
same,IC50,[2],0.866 µM
same,IC50,MCF7,0.884 µM
